Results: patent US20120077677A1, “Use of 4-phenylbutyric acid and/or salts thereof for enhancing stress tolerance in plants” (BAYER CROPSCIENCE AG, priority 2010, published 2012)

How the values were obtained:
BRSNS (Brassica napus) = assay: Drought stress test on potted crop plants, spray application, Brassica napus; format: in vivo
Description: Seeds of monocotyledonous and dicotyledonous crop plants are placed in sandy loam in wood-fiber pots, covered with soil and cultivated in a greenhouse under good growth conditions. The test plants were treated at the early leaf stage (BBCH10-BBCH13). To ensure uniform water supply before commencement of stress, the potted plants were supplied with the maximum amount of water immediately beforehand by dam irrigation and, after application, transferred in plastic inserts in order to prevent subsequent, excessively rapid drying. The inventive compounds, formulated in the form of wettable powders (WP), wettable granules (WG), suspension concentrates (SC) or emulsion concentrates (EC), were sprayed onto the green parts of the plants as an aqueous suspension at an equivalent water application rate of 600 l/ha with addition of 0.2% wetting agent (agrotin). Substance application was followed immediately by stress treatment of the plants (cold or drought stress). For cold stress treatment, the plants were kept under the following controlled conditions: • “day”: 12 hours with illumination at 8° C. • “night”: 12 hours without illumination at 1° C. Drought stress was induced by gradual drying out under the following conditions: • “day”: 14 hours with illumination at 26° C. • “night”: 10 hours without illumination at 18° C. The duration of the respective stress phases was guided mainly by the state of the untreated, stressed control plants and thus varied from crop to crop. It was ended (by re-irrigating or transfer to a greenhouse with good growth conditions) as soon as irreversible damage was observed on the untreated, stressed control plants. In the case of dicotyledonous crops, for example oilseed rape and soybeans, the duration of the drought stress phase varied between 3 and 5 days, in the case of monocotyledonous crops, for example wheat, barley or corn, between 6 and 10 days. The duration of the cold stress phase varied between 12 and 14 days. […] The intensity of damage was first assessed as a percentage (100%=plants have died, 0%=like control plants). […]

ZEAMX (Zea mays) = assay: Drought stress test on potted crop plants, spray application, Zea mays; format: in vivo; conditions: dosage 250 g/ha
Description: (§1) Seeds of monocotyledonous and dicotyledonous crop plants are placed in sandy loam in wood-fiber pots, covered with soil and cultivated in a greenhouse under good growth conditions. The test plants were treated at the early leaf stage (BBCH10-BBCH13). To ensure uniform water supply before commencement of stress, the potted plants were supplied with the maximum amount of water immediately beforehand by dam irrigation and, after application, transferred in plastic inserts in order to prevent subsequent, excessively rapid drying. The inventive compounds, formulated in the form of wettable powders (WP), wettable granules (WG), suspension concentrates (SC) or emulsion concentrates (EC), were sprayed onto the green parts of the plants as an aqueous suspension at an equivalent water application rate of 600 l/ha with addition of 0.2% wetting agent (agrotin). Substance application was followed immediately by stress treatment of the plants (cold or drought stress). For cold stress treatment, the plants were kept under the following controlled conditions: • “day”: 12 hours with illumination at 8° C. • “night”: 12 hours without illumination at 1° C. […] The intensity of damage was first assessed as a percentage (100%=plants have died, 0%=like control plants). […]

cotton = conditions: cited from earlier work
[1] = test system: TRZAS (Triticum aestivum); assay: Drought stress test on potted crop plants, spray application, Triticum aestivum; format: in vivo; conditions: dosage 25 g/ha
Description: as §1

Row | SMILES | EF (BRSNS), efficacy = percentage reduction in the intensity of damage (BRSNS (Brassica napus); dosage 25 g/ha) | EF (ZEAMX), efficacy = percentage reduction in the intensity of damage (ZEAMX (Zea mays)) | EF (BRSNS), efficacy = percentage reduction in the intensity of damage (BRSNS (Brassica napus); dosage 250 g/ha) | plant growth (cotton; application to cottonseeds, hence oil content of the harvested material) | translocation of mono- and disaccharides (cotton; cotton, seed dressing) | protein content of the leaves (cotton; cottonseed dressing, early growth stages, also enhances the yields) | flower formation and the maturing of cotton plants (cotton; cottonseed dressing, hence enhances the yields) | EF (TRZAS), efficacy = percentage reduction in the intensity of damage [1]
1 | O=C(O)CCCc1ccccc1 [4-phenylbutyric acid] | >5% | >5% | – | – | – | – | – | –
2 | O=C([O-])CCCc1ccccc1.[Na+] [Compound I-2, Sodium 4-phenylbutyrate] | – | – | >5% | increases | positively influenced | increases | enhances | –
3 | O=C(O)CCCc1ccccc1.OCCN(CCO)CCO [Compound I-22, Tris-N,N,N-(2-hydroxy-1-yl)ammonium 4-phenylbutyrate] | >5% | – | – | – | – | – | – | >5%
